According to patent US9862679B2, “Potent and selective inhibitors of monoamine transporters; method of making; and use thereof” (priority 2013, dated 2018):
“And” between values parts separate entries of the source, which are not always exact repeats. Equal entries are not always repeated. Where two headings read alike, the source gives them in different places.

Key:
Sigma 2 = Sigma 2 (Homo sapiens (Human), UniProt Q5BJF2); test: Sigma 2 binding affinity (Table 5)
[1] = target: dopamine transporter (DAT) (Rattus norvegicus (Rat), UniProt P23977); test: Dopamine Transporter Binding Assay ([3H]WIN 35428, rat striatal membranes); conditions: rat brain membranes
Sequence of dopamine transporter (DAT) (P23977 whole entry): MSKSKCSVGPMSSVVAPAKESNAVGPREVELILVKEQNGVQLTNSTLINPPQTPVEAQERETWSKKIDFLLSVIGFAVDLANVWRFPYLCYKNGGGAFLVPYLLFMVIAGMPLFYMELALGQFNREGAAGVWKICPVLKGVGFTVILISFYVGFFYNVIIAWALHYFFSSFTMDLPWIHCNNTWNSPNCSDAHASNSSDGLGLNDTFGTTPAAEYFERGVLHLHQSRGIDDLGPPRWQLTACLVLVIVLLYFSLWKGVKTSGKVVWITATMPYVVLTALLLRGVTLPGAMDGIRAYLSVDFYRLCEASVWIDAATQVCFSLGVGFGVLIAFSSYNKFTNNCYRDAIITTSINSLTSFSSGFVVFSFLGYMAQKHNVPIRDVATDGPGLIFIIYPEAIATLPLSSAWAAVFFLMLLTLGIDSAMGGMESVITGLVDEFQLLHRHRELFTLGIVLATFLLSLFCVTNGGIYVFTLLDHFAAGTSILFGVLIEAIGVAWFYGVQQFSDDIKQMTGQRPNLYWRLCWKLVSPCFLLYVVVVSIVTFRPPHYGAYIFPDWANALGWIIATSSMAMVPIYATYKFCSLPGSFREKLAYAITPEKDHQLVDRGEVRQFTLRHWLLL

Sigma 1 = Sigma 1 (Homo sapiens (Human), UniProt Q99720); test: Sigma 1 binding affinity (Table 5)
Sequence of Sigma 1 (Q99720 whole entry): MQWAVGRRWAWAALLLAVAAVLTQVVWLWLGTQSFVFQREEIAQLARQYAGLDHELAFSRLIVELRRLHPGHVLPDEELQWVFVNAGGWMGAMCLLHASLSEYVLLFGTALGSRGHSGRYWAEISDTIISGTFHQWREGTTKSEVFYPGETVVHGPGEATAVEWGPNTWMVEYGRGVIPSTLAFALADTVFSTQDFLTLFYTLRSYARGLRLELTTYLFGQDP

[2] = target: T1, serotonin transporter (SERT) (Rattus norvegicus (Rat), UniProt P31652); conditions: rat brain membranes
T1 sequence (P31652 whole entry): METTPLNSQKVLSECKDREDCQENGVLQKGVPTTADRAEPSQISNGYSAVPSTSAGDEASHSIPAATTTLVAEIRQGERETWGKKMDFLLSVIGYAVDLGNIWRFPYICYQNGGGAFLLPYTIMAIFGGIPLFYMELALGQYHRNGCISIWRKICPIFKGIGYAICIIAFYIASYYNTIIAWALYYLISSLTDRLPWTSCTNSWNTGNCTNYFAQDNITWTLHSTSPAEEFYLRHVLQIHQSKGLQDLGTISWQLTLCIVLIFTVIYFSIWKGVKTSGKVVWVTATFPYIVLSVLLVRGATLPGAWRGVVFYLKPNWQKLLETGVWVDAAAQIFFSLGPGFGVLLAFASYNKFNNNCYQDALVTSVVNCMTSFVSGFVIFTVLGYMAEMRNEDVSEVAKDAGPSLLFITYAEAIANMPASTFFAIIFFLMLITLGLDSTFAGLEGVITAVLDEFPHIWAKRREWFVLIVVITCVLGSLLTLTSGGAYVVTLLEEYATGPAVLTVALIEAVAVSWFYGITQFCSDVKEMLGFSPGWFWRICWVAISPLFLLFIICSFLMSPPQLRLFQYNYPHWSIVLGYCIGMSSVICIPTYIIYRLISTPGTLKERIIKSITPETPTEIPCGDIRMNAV
Procedure: (§1) Brains from male Sprague-Dawley rats weighing 200-225 g (Taconic Labs, Germantown, N.Y.) were removed, midbrain dissected and rapidly frozen. […] Nonspecific binding was determined using 10 mM fluoxetine. […] The filters were washed twice with 3 mL cold buffer and transferred to scintillation vials. Beckman Ready Value (3.0 mL) was added and the vials were counted the next day using a Beckman 6000 liquid scintillation counter (Beckman Coulter Instruments, Fullerton, Calif.). […] Data were analyzed with GraphPad Prism software (San Diego, Calif.).

[3] = target: norepinephrine transporter (NET) (Rattus norvegicus, UniProt Q63380); conditions: rat brain membranes
Sequence of norepinephrine transporter (NET) (Q63380 1-617): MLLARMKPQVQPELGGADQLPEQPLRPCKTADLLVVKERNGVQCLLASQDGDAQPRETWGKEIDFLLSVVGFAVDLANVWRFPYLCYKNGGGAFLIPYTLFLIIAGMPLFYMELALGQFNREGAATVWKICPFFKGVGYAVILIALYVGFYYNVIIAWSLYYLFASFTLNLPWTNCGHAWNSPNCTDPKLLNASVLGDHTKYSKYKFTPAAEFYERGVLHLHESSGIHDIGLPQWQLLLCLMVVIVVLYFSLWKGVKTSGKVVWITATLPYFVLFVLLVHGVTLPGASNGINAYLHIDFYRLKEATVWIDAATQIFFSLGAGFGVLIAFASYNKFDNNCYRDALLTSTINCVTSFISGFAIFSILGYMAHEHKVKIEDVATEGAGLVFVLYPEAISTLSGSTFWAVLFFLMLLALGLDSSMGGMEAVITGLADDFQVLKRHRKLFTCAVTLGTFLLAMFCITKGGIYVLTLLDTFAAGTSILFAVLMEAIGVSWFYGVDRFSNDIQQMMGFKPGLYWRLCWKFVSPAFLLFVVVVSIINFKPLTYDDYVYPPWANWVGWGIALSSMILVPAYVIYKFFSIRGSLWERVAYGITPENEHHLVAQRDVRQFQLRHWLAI
Procedure: Binding affinities of all compounds were evaluated at the DAT, SERT, and NET in rat brain membranes using previously described methods:
Norepinephrine Transporter Binding Assay. Brains from male Sprague-Dawley rats weighing 200-225 g (Taconic Labs, Germantown, N.Y.) were removed, frontal cortex dissected and rapidly frozen. Membranes were prepared by homogenizing tissues in 20 volumes (w/v) of 50 mM Tris containing 120 mM NaCl and 5 mM KCl, (pH 7.4 at 25° C.), using a Brinkman Polytron and centrifuged at 50,000×g for 10 min at 4° C. The resulting pellet was resuspended in buffer, recentrifuged and resuspended in buffer to a concentration of 80 mg/mL. Ligand binding experiments were conducted in assay tubes containing 0.5 mL buffer for 60 min at 0-4° C. […] Nonspecific binding was determined using 1 mM desipramine. Incubations were terminated by rapid filtration through Whatman GF/B filters, presoaked in 0.05% polyethylenimine, using a Brandel R48 filtering manifold (Brandel Instruments Gaithersburg, Md.). The filters were washed twice with 3 mL cold buffer and transferred to scintillation vials. Beckman Ready Value (3.0 mL) was added and the vials were counted using a Beckman 6000 liquid scintillation counter (Beckman Coulter Instruments, Fullerton, Calif.). […] All compounds were tested as racemic mixtures.

[4] = target: T1, serotonin transporter (SERT); test: biochemical
Procedure: as §1

[5] = Table 5 piperazinyl derivatives, read-out: DAT Ki ± SEM
[6] = read-out: SERT Ki ± SEM, Table 5 piperazinyl derivatives
[7] = read-out: NET Ki ± SEM, Table 5 piperazinyl derivatives
[8] = Table 5 piperazinyl derivatives, read-out: Sigma 2 Ki ± SEM
[9] = Table 5 piperazinyl derivatives, read-out: Sigma 1 Ki ± SEM
[10] = read-out: Ki (nM) ± S.E.M. NET, Table 1 thioacetamides and sulfinylacetamides
[11] = Table 1 thioacetamides and sulfinylacetamides, read-out: Ki (nM) ± S.E.M. DAT

Sequence of Sigma 2 (Q5BJF2 whole entry): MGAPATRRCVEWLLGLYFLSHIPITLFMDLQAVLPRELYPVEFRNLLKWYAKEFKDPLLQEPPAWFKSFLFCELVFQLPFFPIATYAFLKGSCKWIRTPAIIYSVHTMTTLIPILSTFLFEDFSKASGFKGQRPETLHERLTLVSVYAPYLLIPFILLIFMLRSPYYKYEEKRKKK

## CC(O)CN1CCN(CCSC(c2ccccc2)c2ccccc2)CC1 (racemic) [Compound 9a, 1-(4-(2-(Benzhydrylthio)ethyl)piperazin-1-yl)propan-2-ol]
Sigma 2
  Ki: 92.6 ± 13.5 nM
[1]; [5]
  Ki: 49.6 ± 4.31 nM
Sigma 1
  Ki: 0.94 ± 0.07 nM
[2]; [6]
  Ki: 26700 ± 2630 nM
[3]; [7]
  Ki: 44500 ± 2400 nM

## CC(O)CN1CCN(CC[S+]([O-])C(c2ccc(F)cc2)c2ccc(F)cc2)CC1 (racemic) [Compound 10d, 1-(4-(2-((Bis(4-fluorophenyl)methyl)sulfinyl)ethyl)piperazin-1-yl)propan-2-ol]
Sigma 2; [8]
  Ki: 1800 ± 264 nM
Sigma 1; [9]
  Ki: 1010 ± 134 nM
[2]; [6]
  Ki: 50300 ± 5760 nM
[3]; read-out: NET Ki, Table 5, bound in M
  Ki: > 100000 nM

## NC(=O)C[S+]([O-])C(c1cccc(Cl)c1)c1cccc(Cl)c1 (stereo not shown) [Compound 3d, 2-((Bis(3-chlorophenyl)methyl)sulfinyl)acetamide]
[4]
  Ki: > 100000 nM
[3]; [10]
  Ki: > 100000 nM

## O=C(CSC(c1ccc(Br)cc1)c1ccc(Br)cc1)NCC1CC1 [Compound 2q, 2-((Bis(4-bromophenyl)methyl)thio)-N-(cyclopropylmethyl)acetamide]
[4]
  Ki: 7270 nM
[1]; [11]
  Ki: 993 ± 139 nM
[3]; [10]
  Ki: > 100000 nM

## c1ccc(CCCN2CCN(CCSC(c3ccccc3)c3ccccc3)CC2)cc1 [Compound 7a, 1-(2-(Benzhydrylthio)ethyl)-4-(3-phenylpropyl)piperazine]
Sigma 2
  Ki: 16.8 ± 2.15 nM
[1]; [5]
  Ki: 3.58 ± 0.16 nM
Sigma 1
  Ki: 19.9 ± 2.59 nM
[2]; [6]
  Ki: 1050 ± 152 nM
[3]; [7]
  Ki: 988 nM

## [O-][S+](CCN1CCN(CC(O)Cc2ccccc2)CC1)C(c1ccccc1)c1ccccc1 (racemic) [Compound 10g, 1-(4-(2-(Benzhydrylsulfinyl)ethyl)piperazin-1-yl)-3-phenylpropan-2-ol]
Sigma 2; [8]
  Ki: 316 ± 25.2 nM
[1]; [5]
  Ki: 3.43 ± 0.5 nM
Sigma 1; [9]
  Ki: 983 ± 103 nM
[2]; [6]
  Ki: 21700 ± 2020 nM
[3]; [7]
  Ki: 25300 ± 2040 nM

## O=C(CSC(c1ccccc1)c1ccccc1)NCC1CC1 [Compound 2o, 2-(Benzhydrylthio)-N-(cyclopropylmethyl)acetamide]
[4]
  Ki: 20900 nM
[1]; [11]
  Ki: 13900 nM
[3]; [10]
  Ki: > 100000 nM

## Fc1ccc(C(SCCN2CCN(CCCc3ccccc3)CC2)c2ccc(F)cc2)cc1 [Compound 7b, 1-(2-((Bis(4-fluorophenyl)methyl)thio)ethyl)-4-(3-phenylpropyl)piperazine]
Sigma 2
  Ki: 28.5 ± 2.14 nM
[1]; [5]
  Ki: 4.5 ± 0.34 nM
Sigma 1
  Ki: 59.5 ± 5.04 nM
[2]; [6]
  Ki: 285 nM
[3]; [7]
  Ki: 1890 ± 116 nM

## NC(=O)C[S+]([O-])C(c1cccc(F)c1)c1cccc(F)c1 (stereo not shown) [Compound 3c, 2-((Bis(3-fluorophenyl)methyl)sulfinyl)acetamide]
[4]
  Ki: > 100000 nM
[1]; [11]
  Ki: 6180 nM
[3]; [10]
  Ki: > 100000 nM

## NC(=O)C[S+]([O-])C(c1ccccc1)c1cccc(Br)c1 (stereo not shown) [Compound 3e, 2-(((3-Bromophenyl)(phenyl)methyl)sulfinyl)acetamide]
[4]
  Ki: > 100000 nM
[1]; [11]
  Ki: 550 ± 7.4 nM
[3]; [10]
  Ki: > 100000 nM

## NCCSC(c1ccc(Cl)cc1)c1ccc(Cl)cc1 [Compound 4b, 2-((bis(4-chlorophenyl)methyl)thio)ethan-1-amine]
[4]
  Ki: < 30 nM
[2]; read-out: Ki (nM) ± S.E.M. SERT, Table 2 thioethanamines and sulfinylethanamines
  Ki: 30 nM and 29.9 nM
